Columns and labels:
Assay type in all cases: binding
14-3-3/p65 = biological target: T1, 14-3-3/p65 (Homo sapiens, UniProt P61981); assay: Cooperativity analysis of the 14-3-3/p65/28 complex; settings: 1 mM compound; saturation not achieved
T1 construct: the full length 14-3-3γ was dialysis against 25 mM HEPES pH 7.5; made in house; host or cells: E. coli BL21(DE3), pPROEX HTb
Description: Finally, we performed a cooperativity analysis of the 14-3-3/p65/28 complex to investigate how these structural observations translate to cooperativity. For the 14-3-3/p65/28 complex, saturation of the system was not achieved at concentration ≤1 mM with SF1 mM=37. […] The cooperative interactions within the 14-3-3/Pin1/28 complex are thus significant driving factors for the selective stabilization.

C-Raf peptide/14-3-3 = biological target: T2, C-Raf peptide/14-3-3 (Homo sapiens, UniProt P61981); assay: Selectivity screening FA, C-Raf peptide; settings: 100 μM fragment
T2 construct: the full length 14-3-3γ was dialysis against 25 mM HEPES pH 7.5; made in house; host or cells: E. coli BL21(DE3), pPROEX HTb
Source text: (§1) Selectivity screening of covalent fragments. Drugging the hub protein 14-3-3 raises the challenge of selectivity. We hypothesized that the high level of cooperative behavior for 14-3-3/Pin1_72/28 complex is a function of the unique functionality and topology of the interface, specifically the +1 and +3 amino acid of Pin1_72 with the covalent fragment. We further rationalized that this cooperativity would likely translate to high selectivity. To test this hypothesis, fragments 13, 27 and 28 were screened at a single fragment concentration (100 μM) against a panel of 13 peptides as diverse representatives of 14-3-3 client proteins, differing in size and hydrophobicity of the +1 amino acid (FIG. 22A).
(§2) Fluorescence Anisotropy (FA) Assays.

14-3-3/Pin1_72 complex = biological target: T3, 14-3-3/Pin1_72 complex (Homo sapiens, UniProt P61981); assay: Cooperativity analysis, 14-3-3 titrations at varied constant fragment concentration
T3 construct: the full length 14-3-3γ was dialysis against 25 mM HEPES pH 7.5; made in house; host or cells: E. coli BL21(DE3), pPROEX HTb
Source text: Cooperativity in ternary complex formation. In contrast to PPI inhibition, where affinity to one of the protein pockets is the driving force for drug development, design of molecular glues is driven by cooperative ternary complex formation. Both CC50 and SF values are concentration dependent values and might differ based on assay design. […] Cooperative complex formation is often accompanied by structural changes of the interface of a complex which translates to increased stability of the ternary com-plex. In order to assess cooperativity of the ternary complex, fragments 13, 23, 27 and 28 were selected for cooper-activity analysis. The α-factor of the fragments were determined using 14-3-3 titrations in the presence of varied, but constant concentration of fragment in a dose-dependent manner. […] Further, the interval of change in stabilization further describes the systems cooperative behaviour.
However, at higher concentration regimes significant assay interference was observed, probably due to compound aggregation. Fragments 23, 27 and 28 all reached saturation or approached saturation enabling accurate determination of α-factor. […] KD remains constant also at higher concentrations of FC-A, indicating non-specific effects.

Mypt1_472 peptide/14-3-3 = biological target: T4, Mypt1_472 peptide/14-3-3 (Homo sapiens, UniProt P61981); assay: Selectivity screening FA, Mypt1_472 peptide; settings: 100 μM fragment
T4 construct: the full length 14-3-3γ was dialysis against 25 mM HEPES pH 7.5; made in house; host or cells: E. coli BL21(DE3), pPROEX HTb
Source text: as §1, §2

Pin1_72/14-3-3γ = biological target: T5, Pin1_72/14-3-3γ (Homo sapiens, UniProt P61981+Q13526); assay: FA protein titrations in presence of 100 μM fragment, 13 representative 14-3-3/peptide interactions; settings: 14-3-3γ titrations
T5 construct: the full length 14-3-3γ was dialysis against 25 mM HEPES pH 7.5; made in house; host or cells: E. coli BL21(DE3), pPROEX HTb
Description: FIGS. 22A-22F. […] FIG. 22A: Radar plot of the SFs determined by FA protein titrations in presence of 100 μM fragment. […] Right: close-up. FIG. 22B: The SF values determined with 14-3-3γ titrations in presence of 100 μM 13, 27 or 28 in FA assays (n=2). FIG. 22C: Structural overlay of the known 14-3-3 binding epitopes used in this study. FIG. 22D: Overlay of the binding pose of 13, 27 and 28 (line representation) with the AS160 binding epitope (PDB: 7NIX). FIG. 22E: Overlay of crystal structures of 13 (2Fo-Fc map at 1 as mesh) binding to the p65_45 (violet sticks, carton)/14-3-3γ complex (PDB: 7NQP) and the CFTR (cyan sticks, cartoon)/14-3-3 complex (PDB: 5D3F, FC-A hidden for clarity). Hydrophobic contacts between 13 and Ile+1 of p65 and Val+1 of CFTR are indicated by transparent spheres.

CFTRpS753/14-3-3 = biological target: T6, CFTRpS753/14-3-3 (Homo sapiens, UniProt P61981); assay: Selectivity screening FA, CFTRpS753 peptide; settings: 100 μM fragment
T6 construct: the full length 14-3-3γ was dialysis against 25 mM HEPES pH 7.5; made in house; host or cells: E. coli BL21(DE3), pPROEX HTb
T6 sequence (P13569 747-774 partner limits assumed, one chain of several): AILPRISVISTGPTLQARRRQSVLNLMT
Description: (§3) Selectivity screening of covalent fragments. Drugging the hub protein 14-3-3 raises the challenge of selectivity.
(§4) This was investigated by comparing the effect of 13, 27 and 28 on 14-3-3 interaction partners with a leucine (Abl1pT735), isoleucine (p65pS45), or valine (CFTRpS753) at the +1 position.
(§5) Fluorescence Anisotropy (FA) Assays. […] All FA assays were measured in FA buffer (10 mM HEPES pH 7.4, 150 mM NaCl, 0.1% Tween20, 1% BSA) in Corning 384 well plates (black, round bottom, low binding). Plates were incubated overnight prior to anisotropy measurements with the Tecan Infinite 500 plate reader (λexcitation=485 nm, λemission=535 nm).

14-3-3/ERα complex = biological target: T7, 14-3-3/ERα complex (Homo sapiens, UniProt P61981); assay: Selectivity screening FA, ERα peptide; settings: 100 μM fragment
T7 construct: the full length 14-3-3γ was dialysis against 25 mM HEPES pH 7.5; made in house; host or cells: E. coli BL21(DE3), pPROEX HTb
T7 sequence (P61981 1-247): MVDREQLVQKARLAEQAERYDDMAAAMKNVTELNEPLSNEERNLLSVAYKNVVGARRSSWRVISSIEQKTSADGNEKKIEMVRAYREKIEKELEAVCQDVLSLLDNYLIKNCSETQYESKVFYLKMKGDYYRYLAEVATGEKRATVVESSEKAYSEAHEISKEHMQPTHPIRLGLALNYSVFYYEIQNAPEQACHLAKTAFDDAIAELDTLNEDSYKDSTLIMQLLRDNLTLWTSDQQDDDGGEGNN
Source text: as §1, §2

p65pS45/14-3-3 = biological target: T8, p65pS45/14-3-3 (Homo sapiens, UniProt P61981); assay: Selectivity screening FA, p65pS45 peptide; settings: 100 μM fragment
T8 construct: the full length 14-3-3γ was dialysis against 25 mM HEPES pH 7.5; made in house; host or cells: E. coli BL21(DE3), pPROEX HTb
T8 sequence (as listed by the source partner, one chain of several): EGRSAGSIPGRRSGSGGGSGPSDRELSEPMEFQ
Description: as §3, §4, §5

B-Raf_729 peptide/14-3-3 = biological target: T9, B-Raf_729 peptide/14-3-3 (Homo sapiens, UniProt P61981); assay: Selectivity screening FA, B-Raf_729 peptide; settings: 100 μM fragment
T9 construct: the full length 14-3-3γ was dialysis against 25 mM HEPES pH 7.5; made in house; host or cells: E. coli BL21(DE3), pPROEX HTb
Source text: as §1, §2

ERRγ_179 peptide/14-3-3 = biological target: T10, ERRγ_179 peptide/14-3-3 (Homo sapiens, UniProt P61981); assay: Selectivity screening FA, ERRγ_179 peptide; settings: 100 μM fragment
T10 construct: the full length 14-3-3γ was dialysis against 25 mM HEPES pH 7.5; made in house; host or cells: E. coli BL21(DE3), pPROEX HTb
Source text: as §1, §2

Abl1pT735/14-3-3 = biological target: T11, Abl1pT735/14-3-3 (Homo sapiens, UniProt P61981); assay: Selectivity screening FA, Abl1pT735 peptide; settings: 100 μM fragment
T11 construct: the full length 14-3-3γ was dialysis against 25 mM HEPES pH 7.5; made in house; host or cells: E. coli BL21(DE3), pPROEX HTb
Description: as §3, §4, §5

TBC1D237 peptide/14-3-3 = biological target: T12, TBC1D237 peptide/14-3-3 (Homo sapiens, UniProt P61981); assay: Selectivity screening FA, TBC1D237 peptide; settings: 100 μM fragment
T12 construct: the full length 14-3-3γ was dialysis against 25 mM HEPES pH 7.5; made in house; host or cells: E. coli BL21(DE3), pPROEX HTb
Source text: as §1, §2

[1] = biological target: T13, Raptor/14-3-3γ binary complex (Homo sapiens, UniProt P61981); assay: Selectivity screening FA, Raptor peptide; settings: 100 μM fragment
T13 construct: the full length 14-3-3γ was dialysis against 25 mM HEPES pH 7.5; made in house; host or cells: E. coli BL21(DE3), pPROEX HTb
Source text: as §1
Following the importance of the tryptophan for complex stabilization of Pin1_72/14-3-3γ with the benzaldehydes, the influence of phenylalanine (AS160) and tyrosine (Raptor) were investigated (FIGS. 22A-22B). […] Unlike Pin1_72, the C-terminus of AS160 engages Phe+1 in intramolecular hydrophobic contacts with Pro+4 and Pro+5. The +1 phenylalanine likely cannot rearrange to allow fragment binding.
as §2

T1 sequence (as listed by the source partner, one chain of several): as above

stabilization, C-Raf (C-Raf peptide/14-3-3) | concentration necessary to induce a 2-fold increase in PPI stabilization (14-3-3/Pin1_72 complex) [µM] | cooperativity factor (α-factor) (14-3-3/Pin1_72 complex) | stabilization of the Pin1/14-3-3 complex (14-3-3/Pin1_72 complex) [fold] | stabilization, Mypt1_472 (Mypt1_472 peptide/14-3-3) | stabilizing activity, CFTRpS753 (CFTRpS753/14-3-3) | stabilization, ERα (14-3-3/ERα complex) | stabilizing activity, p65pS45 (p65pS45/14-3-3) | stabilization, B-Raf_729 (B-Raf_729 peptide/14-3-3) | stabilization, ERRγ_179 (ERRγ_179 peptide/14-3-3) | stabilizing activity, Abl1pT735 (Abl1pT735/14-3-3) | stabilization, TBC1D237 (TBC1D237 peptide/14-3-3) | SF, CFTR (CFTRpS753/14-3-3) | stabilization of the Raptor/14-3-3γ binary complex [1] [fold] | SMILES | SF1 mM (14-3-3/p65) | selectivity of stabilization among 13 14-3-3/peptide interactions (Pin1_72/14-3-3γ)
abolishes any stabilizing effect | 1 | 270 | 270 | no significant stabilization | no significant complex stabilization | not responsive to fragment stabilization | no significant complex stabilization | no significant stabilization | no significant stabilization | no significant complex stabilization | no significant stabilization | – | – | O=Cc1ccc(-n2ccnc2-c2ccc(F)cc2F)cc1Br [compound 28, 2-bromo-4-(2-(2,4-difluorophenyl)-1H-imidazol-1-yl)benzaldehyde] | 37 | selective stabilization of the 14-3-3/Pin1_72 complex
abolishes any stabilizing effect | – | approximately 60 | – | no significant stabilization | some stabilizing activity | not responsive to fragment stabilization | some stabilizing activity | no significant stabilization | no significant stabilization | some stabilizing activity | no significant stabilization | 12.5 | 9.5 | O=Cc1ccc(-n2ccnc2-c2cc(Br)ccc2F)cc1Br [compound 27, 2-bromo-4-(2-(5-bromo-2-fluorophenyl)-1H-imidazol-1-yl)benzaldehyde] | – | –

— US20230142739A1, “PROTEIN-PROTEIN INTERACTION STABILIZERS” (The Regents of the University of California, priority 2020, published 2023)
